Assays:
[1] = target: T1, rVR1 (Rattus norvegicus, UniProt O35433); assay: Functional investigation at the vanilloid receptor (VR1), FLIPR Ca2+ influx assay, Method II, rVR1; format: cell-based; settings: for IC50: suppression of capsaicin-induced Ca2+ influx; for rVR1 10 μM Stimulation / inhibition at 10 µM: test substance 10 μM; for rVR1 10 μM Stimulation: % activation relative to the Ca2+ signal after adding 10 μM capsaicin; for inhibition at 10 µM: inhibition of Ca2+ influx after 100 nM capsaicin, compared to maximum inhibition with 10 μM capsazepin
T1 construct: expressed in transfected cells; host or cells: CHO K1 cells (ECACC)
Source text: (§1) The agonistic and/or antagonistic effects of the test substances on the vanilloid receptor (VR1) can be determined with the following assay. According to this assay the Ca^2+ influx through the channel is quantified by means of a Ca^2+-sensitive dye (Type Fluo-4, Molecular Probes, Europe BV, Leyden, The Netherlands) in the Fluorescent Imaging Plate Reader (FLIPR, Molecular Devices, Sunnyvale, USA).
(§2) Chinese hamster ovary cells (CHO K1-cells, European Collection of Cell Cultures (ECACC) Great Britain) are stably transfected with the VR1 gene. For functional studies, these cells are plated on poly-D-lysine-coated, black 96-well plates with clear bottom (BD Biosciences, Heidelberg, Germany) at a density of 25 000 cells/well. The cells are incubated overnight at 37° C. and 5% CO2 in a culture medium (Nutrient Mixture Ham's F12, 10 vol. % FCS (fetal calf serum), 18 μg/ml L-proline). On the next day the cells are incubated for 30 minutes at 37° C. with Fluo-4 (Fluo-4 2 μM, Pluronic F127 0.01 vol. %, Molecular Probes) in HBSS (Hank's buffered saline solution), (Gibco Invitrogen GmbH, Karlsruhe, Germany). Then the plates are washed 3 times with HBSS buffer and, after further incubation of 15 minutes at room temperature, they are used for Ca^2+ measurement in the FLIPR. The Ca^2+-dependent fluorescence is measured before and after adding the test substances (wavelength λex=^488 nm, λem=540 nm). Quantification is based on measurement of the maximum fluorescence intensity (FC, fluorescence counts) over time.
(§3) The FLIPR protocol comprises 2 additions of the substance. First the test substances (10 μM) are pipetted onto the cells and the Ca^2+ influx is compared with the control (capsaicin 10 μM) (% activation relative to the Ca^2+ signal after adding 10 μM capsaicin). After incubation for 5 minutes, 100 nM capsaicin is applied and the influx of Ca^2+ is determined again.
(§4) Desensitizing agonists and antagonists led to suppression of Ca^2+ influx. The % inhibition is calculated compared to the maximum inhibition attainable with 10 μM capsazepin.

[2] = target: T2, hVR1 (Homo sapiens, UniProt Q8NER1); assay: Functional investigation at the vanilloid receptor (VR1), FLIPR Ca2+ influx assay, Method II, hVR1; format: cell-based; settings: for IC50: suppression of capsaicin-induced Ca2+ influx; for inhibition at 10 µM: test substance 10 μM, CHO K1 cells transfected with VR1, inhibition of Ca2+ influx after 100 nM capsaicin, compared to maximum inhibition with 10 μM capsazepin
T2 construct: expressed in transfected cells; host or cells: CHO K1 cells (ECACC)
Source text: as §1, §2, §3, §4

T2 sequence (Q8NER1 whole entry): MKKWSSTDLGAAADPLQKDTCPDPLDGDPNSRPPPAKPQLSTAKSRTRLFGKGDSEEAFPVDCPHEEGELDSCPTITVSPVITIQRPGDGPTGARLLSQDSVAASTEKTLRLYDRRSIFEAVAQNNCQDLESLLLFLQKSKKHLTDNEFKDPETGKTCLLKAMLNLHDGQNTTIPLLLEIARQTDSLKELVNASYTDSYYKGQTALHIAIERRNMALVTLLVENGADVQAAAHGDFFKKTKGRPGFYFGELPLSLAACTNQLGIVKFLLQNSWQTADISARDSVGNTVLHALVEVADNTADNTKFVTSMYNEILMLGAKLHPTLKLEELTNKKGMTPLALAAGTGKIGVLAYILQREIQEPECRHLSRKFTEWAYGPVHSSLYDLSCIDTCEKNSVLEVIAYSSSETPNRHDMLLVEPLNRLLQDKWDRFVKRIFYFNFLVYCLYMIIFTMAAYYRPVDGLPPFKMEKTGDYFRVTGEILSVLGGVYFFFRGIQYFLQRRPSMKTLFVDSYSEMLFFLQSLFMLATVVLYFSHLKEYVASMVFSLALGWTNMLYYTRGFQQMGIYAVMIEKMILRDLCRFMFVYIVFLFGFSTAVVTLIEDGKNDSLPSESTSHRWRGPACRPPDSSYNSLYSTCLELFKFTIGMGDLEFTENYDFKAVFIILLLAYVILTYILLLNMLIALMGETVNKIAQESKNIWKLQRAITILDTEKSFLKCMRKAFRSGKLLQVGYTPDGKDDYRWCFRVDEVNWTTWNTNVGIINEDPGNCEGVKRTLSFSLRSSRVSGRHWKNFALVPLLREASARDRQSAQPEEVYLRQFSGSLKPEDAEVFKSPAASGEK
T1 sequence (O35433 whole entry): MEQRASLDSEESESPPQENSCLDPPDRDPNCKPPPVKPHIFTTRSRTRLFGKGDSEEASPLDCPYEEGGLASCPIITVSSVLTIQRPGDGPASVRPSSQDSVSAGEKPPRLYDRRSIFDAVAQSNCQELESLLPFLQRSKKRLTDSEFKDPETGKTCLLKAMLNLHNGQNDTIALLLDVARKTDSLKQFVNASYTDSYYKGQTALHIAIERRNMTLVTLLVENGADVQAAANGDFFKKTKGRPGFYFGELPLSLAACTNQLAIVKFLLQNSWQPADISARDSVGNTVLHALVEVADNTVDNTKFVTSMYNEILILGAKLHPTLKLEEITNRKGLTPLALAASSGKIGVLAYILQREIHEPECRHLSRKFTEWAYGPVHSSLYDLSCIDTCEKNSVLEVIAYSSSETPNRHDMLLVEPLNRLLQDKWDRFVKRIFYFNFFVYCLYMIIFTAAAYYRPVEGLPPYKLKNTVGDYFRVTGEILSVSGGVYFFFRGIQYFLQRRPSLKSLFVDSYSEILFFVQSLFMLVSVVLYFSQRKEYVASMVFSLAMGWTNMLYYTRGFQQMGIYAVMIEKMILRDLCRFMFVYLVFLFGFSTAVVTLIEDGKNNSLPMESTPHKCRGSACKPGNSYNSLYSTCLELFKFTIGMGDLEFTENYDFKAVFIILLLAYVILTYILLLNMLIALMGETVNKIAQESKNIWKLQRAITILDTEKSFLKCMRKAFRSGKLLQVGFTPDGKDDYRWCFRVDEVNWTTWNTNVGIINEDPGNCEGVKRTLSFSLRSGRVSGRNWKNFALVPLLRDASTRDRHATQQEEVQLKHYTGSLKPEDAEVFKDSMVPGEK

For CCCCCCCCCCCCCCCCOC(=O)NC(=O)NCC[N+](C)(C)C [compound 15, 4-(Trimethylamino-1-ethyl)allophanic acid hexadecyl ester iodide], the IC50 [1] was 2.95 µM, the “rVR1 10 μM Stimulation” value [1] was −1.01% and the inhibition at 10 µM [1] was 109%. It also gave an IC50 [2] of 3.45 µM and an inhibition at 10 µM [2] of 101%.

With CCCCCCCCCCCCOC(=O)NC(=O)NCC[N+](C)(C)C [compound 1, 4-(Trimethylamino-1-ethyl)allophanic acid dodecyl ester iodide] the IC50 [1] was 2.1 µM, the “rVR1 10 μM Stimulation” value [1] was 0.55% and the inhibition at 10 µM [1] was 103%. For the same compound, the IC50 [2] was 2.43 µM and the inhibition at 10 µM [2] was 95.4%.

In the case of CCCCCCCCCCCCCCCCOCC1(COC(=O)NC(=O)NCC[N+](C)(C)C)CCCO1 (centres unmarked) [compound 16, 4-(Trimethylamino-1-ethyl)allophanic acid (2-hexadecyloxymethyltetrahydrofuran-2-yl)methyl ester iodide], the IC50 [1] is reported as 2.9 µM, the “rVR1 10 μM Stimulation” value [1] is reported as 0.58% and the inhibition at 10 µM [1] is reported as 99.3%. It also gave an IC50 [2] of 1.7 µM and an inhibition at 10 µM [2] of 68.6%.

In the case of CCCCCCCCCCCCCCCCOC(=O)NC(=O)NCC[N+]1(C)CCCC1 [compound 2, 4-(Pyrrolidinium-1-ethyl)allophanic acid hexadecyl ester iodide], the IC50 [1] is reported as 1.23 µM, the “rVR1 10 μM Stimulation” value [1] is reported as −0.02% and the inhibition at 10 µM [1] is reported as 87.1%. It also gave an IC50 [2] of 0.92 µM and an inhibition at 10 µM [2] of 88.9%.

CCCCCCCCCCCCCCCCOC(=O)NC(=O)NCCC[N+](C)(C)C [compound 3, 4-(Trimethylamino-1-propyl)allophanic acid hexadecyl ester iodide] was tested, and the IC50 [1] was 1.27 µM, the “rVR1 10 μM Stimulation” value [1] was −0.73% and the inhibition at 10 µM [1] was 94.4%. The IC50 [2] was 4.27 µM and the inhibition at 10 µM [2] was 56.9%.

In the case of CCCCCCCCCCCCCCCCOCC(COC(=O)NC(=O)NCC[N+](C)(C)C)OC (centres unmarked) [compound 14, 4-(Trimethylamino-1-ethyl)allophanic acid 3-hexadecyloxy-2-methoxypropan-1-yl ester iodide], the IC50 [1] is reported as 1.15 µM, the “rVR1 10 μM Stimulation” value [1] is reported as 0.09% and the inhibition at 10 µM [1] is reported as 95.5%. The IC50 [2] was 2.4 µM and the inhibition at 10 µM [2] was 93.1%.

CCCCCCCCCCCCCCCCOC[C@@H]1CC[C@H](COC(=O)NC(=O)NCC[N+](C)(C)C)O1 (relative stereo) [compound 13, 4-(Trimethylamino-1-ethyl)allophanic acid (cis-5-hexadecyloxymethyltetrahydrofuran-2-yl)methyl ester iodide] was tested, and the IC50 [1] was 1.3 µM, the “rVR1 10 μM Stimulation” value [1] was 0.36% and the inhibition at 10 µM [1] was 92.1%. For the same compound, the IC50 [2] was 1.1 µM and the inhibition at 10 µM [2] was 80.8%.
